Test results from US6849596B1, “Regulatory/unfolding peptides of ezrin” (priority 1999, dated 2005).

Key:
[1] = test system: antibody forming cells against sheep erythocytes (SRBC); assay: Antibody forming cells against sheep erythocytes (SRBC) in mice, plaque count; type: in vivo; conditions: four days after SRBC, thirty mice per data point
Description: Activity of Hepreceptor Peptides Enhancing the Antibody-Dependent Cytotoxic Response in […] to Sheep Red Blood Cells (SRBC) in Mice
The influence of Hepreceptor peptides on the activation of antibody forming cells against sheep erythocytes (SRBC) in Mice (CBA-C57B1 Fi hybrids. 2 months old, weight 18-22 grams) was determined. Mice were first injected intraperitoneally using either 0.5 ml sterile saline as a control or Hepreceptor peptides in the same volume of saline. 30 minutes after the injection of Hepreceptor peptides, a cell suspension containing 5 million SRBC was administered intraperitoneally to each mouse. Four days after the immunisation, the mice were killed by cervical dislocation and the spleens were obtained aseptically. Each spleen was homogenised in 2 ml of Medium 199, then 100 microliters of this suspension was put into 1 ml of prepared agarose in Medium 199 (stored in water bath at 48° C.), SRBC suspension was added, resulting in a final concentration of 1% agarose. The Im1 of agarose-cell mixture was agitated then transferred to petri dish to set. When the agarose became solid, the petri dish was incubated for 1 hour at 37° C. then 0.5 ml of 1-in-20 diluted guinea pig serum in Medium 199 was added on top of agarose gel as a source of complement. The incubation was continued for another 1 hour. The dishes were then visualised using an 8×binocular microscope and the number of plaques counted (each plaque equivalent to one antibody secreting mouse spleen cell). The results were expressed both as the number of antibody secreting cells per one million nucleated spleen cells and the number of antibody secreting cells per whole spleen.
Averaged data (from thirty mice per data point) of the number of antibody forming cells per one million nucleated spleen cells. The data was re-based relative to 100 for each control group.

Salmonella typhimurium = assay: Protection of mice from acute Salmonella typhimurium infection; type: in vivo; conditions: control 0%
Description: Laboratory mice (CBAxC57B1 F1 hybrids) were split into groups of five which either received 0.5 ml saline or 0.5 ml saline plus various concentrations of different Hepreceptor peptides (1, 10 or 100 nanograms). 24 hours later the mice were acutely infected with Salmonella typhimurium (10,000 or 100,000 bacteria injected intraperitoneally per mouse). The percent of each group of mice surviving after 20 days was recorded (lethally infected control animals were dead within three days of infection).
Percent of mouse group surviving after 20 days infection

[2] = test system: human Peripheral Blood Mononuclear Cells; assay: In vitro activation of human PBMC, tritiated thymidine incorporation; type: cell-based; conditions: three days, Control 370
Description: Peripheral Blood Mononuclear Cells (PBMC) were separated from the peripheral blood of a […] donor using the standard method of fractionation in a ficoll gradient. The PBMC were suspended in culture medium containing RPMI1640 medium plus 10% fetal calf serum, 1 mM L-glutamin and antibiotics (BM). The cell suspension was placed in wells of a 96 hole microwell plate for cell cultivation, (100 microliters of suspension containing 100,000 cells per well). […] The negative control well contained BM but no peptide. The plate was incubated at 37° C. for three days then radioactive ^3H thymidine was added to a final concentration of 1 microcurie per ml. The incorporation of ^3H thymidine into the DNA of the cells was measured using a betacounter using standard procedures. The experiment was repeated twice and the results expressed as an average of the two experiments in radioactive counts per minute.

[3] = test system: IgG serum antibody response to Ovalbumin; assay: Adjuvant activity: IgG serum antibody response to Ovalbumin in mice; type: in vivo; conditions: for IgG response recorded as OD: 50 micrograms Ovalbumin, two weeks, sera 1 to 100; for IgG response recorded as OD then rebased relative to 100 for each control: control = 100
Description: Adjuvant Activity of Hepreceptor Peptides Enhancing the IgG Serum Antibody Response to Ovalbumin in Mice
The IgG response in mice two weeks after an injection of 50 micrograms of Ovalbumin plus various concentrations of different hepreceptor peptides was determined. IgG response was measured by Optical Density (OD) of a 1 to 100 dilution of mouse sera in the presence of Ovalbumin.
IgG response recorded as OD
IgG response recorded as OD then data rebased relative to 100 for each control

[4] = IP injection 1 microgram per mouse
[5] = IP injection 10 micrograms per mouse
[6] = 10,000 bacteria per mouse, 1 nanogram peptide per mouse 24 hours before
[7] = 10,000 bacteria per mouse, 10 nanograms peptide per mouse
[8] = 10,000 bacteria per mouse, 100 nanograms peptide per mouse
[9] = 100,000 bacteria per mouse, 1 nanogram peptide per mouse
[10] = 100,000 bacteria per mouse, 10 nanograms peptide per mouse
[11] = 100,000 bacteria per mouse, 100 nanograms peptide per mouse
[12] = IP injection 0.01 micrograms per mouse
[13] = IP injection 0.1 micrograms per mouse

Row | Substance | number of antibody forming cells per one million nucleated spleen cells, re-based relative to 100 for control [1, 4] | number of antibody forming cells per one million nucleated spleen cells, re-based relative to 100 for control [1, 5] | Percent of mouse group surviving after 20 days infection (Salmonella typhimurium; [6]) [%] | Percent of mouse group surviving after 20 days infection (Salmonella typhimurium; [7]) [%] | Percent of mouse group surviving after 20 days infection (Salmonella typhimurium; [8]) [%] | Percent of mouse group surviving after 20 days infection (Salmonella typhimurium; [9]) [%] | Percent of mouse group surviving after 20 days infection (Salmonella typhimurium; [10]) [%] | Percent of mouse group surviving after 20 days infection (Salmonella typhimurium; [11]) [%] | incorporation of 3H thymidine ([2]; Peptide 0.0001 micro g/ml) | incorporation of 3H thymidine ([2]; Peptide 0.0003 micro g/ml) | incorporation of 3H thymidine ([2]; Peptide 0.001 micro g/ml) | incorporation of 3H thymidine ([2]; Peptide 0.003 micro g/ml) | IgG response recorded as OD [3, 12] [OD] | IgG response recorded as OD then rebased relative to 100 for each control [3, 12] | IgG response recorded as OD [3, 13] [OD] | IgG response recorded as OD then rebased relative to 100 for each control [3, 13] | IgG response recorded as OD [3, 4] [OD] | IgG response recorded as OD then rebased relative to 100 for each control [3, 4] | IgG response recorded as OD [3, 5] [OD] | IgG response recorded as OD then rebased relative to 100 for each control [3, 5] | other results
1 | TEKKR (Hepreceptor peptide) [Rupe15] | 255 | 134 | 20 | 40 | 40 | 20 | 20 | 0 | – | – | – | – | – | – | – | – | – | – | – | – | –
2 | RETVEREKE (Hepreceptor peptide) [Rupe614] | – | – | – | – | – | – | – | – | 464 radioactive counts per minute | 503 radioactive counts per minute | 550 radioactive counts per minute | 752 radioactive counts per minute | – | – | – | – | – | – | – | – | incorporation of 3H thymidine ([2]; Peptide 0.01 micro g/ml): 607 radioactive counts per minute; incorporation of 3H thymidine ([2]; Peptide 0.03 micro g/ml): 538 radioactive counts per minute; incorporation of 3H thymidine ([2]; Peptide 0.1 micro g/ml): 596 radioactive counts per minute; incorporation of 3H thymidine ([2]; Peptide 0.3 micro g/ml): 635 radioactive counts per minute; incorporation of 3H thymidine ([2]; Peptide 1 micro g/ml): 600 radioactive counts per minute; incorporation of 3H thymidine ([2]; Peptide 3 micro g/ml): 499 radioactive counts per minute; incorporation of 3H thymidine ([2]; Peptide 10 micro g/ml): 412 radioactive counts per minute
3 | KEELMLRLQDYEE (Hepreceptor peptide) [Rupe2032] | 236 | 232 | – | – | – | – | – | – | – | – | – | – | 0.509 | 401 | 0.606 | 477 | 0.327 | 257 | 0.203 | 160 | –
4 | TEKKRRETV (Hepreceptor peptide) [Rupe19] | – | – | – | – | – | – | – | – | 426 radioactive counts per minute | 602 radioactive counts per minute | 718 radioactive counts per minute | 756 radioactive counts per minute | – | – | – | – | – | – | – | – | incorporation of 3H thymidine ([2]; Peptide 0.01 micro g/ml): 545 radioactive counts per minute; incorporation of 3H thymidine ([2]; Peptide 0.03 micro g/ml): 586 radioactive counts per minute; incorporation of 3H thymidine ([2]; Peptide 0.1 micro g/ml): 537 radioactive counts per minute; incorporation of 3H thymidine ([2]; Peptide 0.3 micro g/ml): 563 radioactive counts per minute; incorporation of 3H thymidine ([2]; Peptide 1 micro g/ml): 509 radioactive counts per minute; incorporation of 3H thymidine ([2]; Peptide 3 micro g/ml): 502 radioactive counts per minute; incorporation of 3H thymidine ([2]; Peptide 10 micro g/ml): 517 radioactive counts per minute
5 | EREKEQMMREKEEL (Hepreceptor peptide) [Rupe1024] | 401 | 397 | 40 | 40 | 40 | 0 | 20 | 40 | – | – | – | – | 0.250 | 164 | 0.262 | 172 | 0.489 | 322 | 0.445 | 293 | –
6 | EREKE (Hepreceptor peptide) [Rupe1014] | 202 | 325 | – | – | – | – | – | – | – | – | – | – | 0.232 | 183 | 0.231 | 182 | 0.477 | 376 | 0.508 | 400 | –
